The structures appear in SMILES notation.

The target of assay [1] is Calcium/calmodulin-dependent protein kinase kinase 1 (Homo sapiens) (UniProt Q8N5S9). Description: Inhibition of human recombinant CaMKK1 at 40 nM in presence of ATP by radiometric assay relative to control.
Assay [2] concerns the target T1, Dual specificity tyrosine-phosphorylation-regulated kinase 3 (Homo sapiens) (UniProt O43781).
T1 sequence (whole entry): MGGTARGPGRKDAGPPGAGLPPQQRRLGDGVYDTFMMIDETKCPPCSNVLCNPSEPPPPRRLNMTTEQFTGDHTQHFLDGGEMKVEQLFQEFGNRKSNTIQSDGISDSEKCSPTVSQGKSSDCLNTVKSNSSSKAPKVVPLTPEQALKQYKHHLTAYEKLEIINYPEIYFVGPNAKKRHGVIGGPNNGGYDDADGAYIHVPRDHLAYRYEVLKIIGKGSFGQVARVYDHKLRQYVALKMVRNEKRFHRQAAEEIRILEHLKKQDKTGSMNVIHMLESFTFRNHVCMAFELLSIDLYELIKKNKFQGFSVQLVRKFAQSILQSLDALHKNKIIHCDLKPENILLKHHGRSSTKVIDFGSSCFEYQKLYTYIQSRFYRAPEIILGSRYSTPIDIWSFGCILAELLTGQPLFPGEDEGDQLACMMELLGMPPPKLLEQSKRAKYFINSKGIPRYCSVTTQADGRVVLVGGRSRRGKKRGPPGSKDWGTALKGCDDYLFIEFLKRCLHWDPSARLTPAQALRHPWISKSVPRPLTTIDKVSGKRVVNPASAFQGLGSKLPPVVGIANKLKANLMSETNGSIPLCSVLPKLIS
Briefly: Inhibition of human recombinant DYRK3 at 40 nM related to control ULK1.

Assay [3] has as its target T2, Tyrosine-protein kinase Mer (Homo sapiens) (UniProt Q12866).
T2 sequence (whole entry): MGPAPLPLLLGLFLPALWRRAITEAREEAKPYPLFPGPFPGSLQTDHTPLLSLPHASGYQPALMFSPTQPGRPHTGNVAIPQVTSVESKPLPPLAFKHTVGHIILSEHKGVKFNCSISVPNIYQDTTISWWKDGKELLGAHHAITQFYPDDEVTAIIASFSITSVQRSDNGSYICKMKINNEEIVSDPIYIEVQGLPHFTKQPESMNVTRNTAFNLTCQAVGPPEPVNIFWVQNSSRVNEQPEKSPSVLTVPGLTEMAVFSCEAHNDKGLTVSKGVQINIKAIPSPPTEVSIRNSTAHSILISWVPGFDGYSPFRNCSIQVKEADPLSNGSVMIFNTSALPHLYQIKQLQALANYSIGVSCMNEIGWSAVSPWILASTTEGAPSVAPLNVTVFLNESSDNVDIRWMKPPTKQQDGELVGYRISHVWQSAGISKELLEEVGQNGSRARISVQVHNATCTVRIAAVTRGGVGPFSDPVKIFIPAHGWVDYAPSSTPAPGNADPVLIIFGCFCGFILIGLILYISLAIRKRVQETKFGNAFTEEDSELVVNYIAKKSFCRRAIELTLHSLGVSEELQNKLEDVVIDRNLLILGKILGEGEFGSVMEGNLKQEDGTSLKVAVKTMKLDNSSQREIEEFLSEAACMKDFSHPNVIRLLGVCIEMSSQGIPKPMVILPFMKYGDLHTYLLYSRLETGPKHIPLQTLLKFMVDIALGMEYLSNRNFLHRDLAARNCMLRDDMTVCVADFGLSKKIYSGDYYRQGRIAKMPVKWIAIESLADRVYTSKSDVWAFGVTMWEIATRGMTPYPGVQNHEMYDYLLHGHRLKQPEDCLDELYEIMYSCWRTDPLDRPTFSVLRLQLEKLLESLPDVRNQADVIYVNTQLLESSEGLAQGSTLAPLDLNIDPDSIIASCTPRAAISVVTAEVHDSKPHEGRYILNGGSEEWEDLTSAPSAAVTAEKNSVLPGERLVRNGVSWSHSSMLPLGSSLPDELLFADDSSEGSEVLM
Description: Inhibition of human recombinant MER at 40 nM related to control ULK1.

Assay [4] has as its target Protein kinase C alpha type (Homo sapiens) (UniProt P17252). Briefly: Inhibition of human recombinant PKCa at 500 nM in presence of ATP by radiometric assay relative to control.
For assay [5], the target named is T3, Inhibitor of nuclear factor kappa-B kinase subunit epsilon (Homo sapiens) (UniProt Q14164).
T3 sequence (whole entry): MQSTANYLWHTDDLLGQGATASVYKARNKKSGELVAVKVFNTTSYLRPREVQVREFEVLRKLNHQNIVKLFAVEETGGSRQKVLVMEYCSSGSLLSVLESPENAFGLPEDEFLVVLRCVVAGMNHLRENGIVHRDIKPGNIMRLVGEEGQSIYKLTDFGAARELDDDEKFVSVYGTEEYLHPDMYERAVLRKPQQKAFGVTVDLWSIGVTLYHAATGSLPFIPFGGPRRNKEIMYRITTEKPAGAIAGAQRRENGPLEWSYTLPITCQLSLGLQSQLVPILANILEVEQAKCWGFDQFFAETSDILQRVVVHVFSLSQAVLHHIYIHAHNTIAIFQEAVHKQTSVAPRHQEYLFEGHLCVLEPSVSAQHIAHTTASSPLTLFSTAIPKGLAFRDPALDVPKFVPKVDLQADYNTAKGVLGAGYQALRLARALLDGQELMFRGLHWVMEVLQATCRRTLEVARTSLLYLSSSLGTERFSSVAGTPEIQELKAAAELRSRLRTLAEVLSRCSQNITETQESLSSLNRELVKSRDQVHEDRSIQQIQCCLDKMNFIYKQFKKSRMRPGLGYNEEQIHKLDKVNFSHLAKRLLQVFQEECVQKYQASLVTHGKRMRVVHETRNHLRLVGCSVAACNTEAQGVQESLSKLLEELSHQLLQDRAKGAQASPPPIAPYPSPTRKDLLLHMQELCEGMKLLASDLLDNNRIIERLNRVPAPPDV
Description: Inhibition of human recombinant IKKe at 15 nM related to control ULK1.

Calcium/calmodulin-dependent protein kinase kinase 1 (Homo sapiens), sequence (Q8N5S9 whole entry, looked up): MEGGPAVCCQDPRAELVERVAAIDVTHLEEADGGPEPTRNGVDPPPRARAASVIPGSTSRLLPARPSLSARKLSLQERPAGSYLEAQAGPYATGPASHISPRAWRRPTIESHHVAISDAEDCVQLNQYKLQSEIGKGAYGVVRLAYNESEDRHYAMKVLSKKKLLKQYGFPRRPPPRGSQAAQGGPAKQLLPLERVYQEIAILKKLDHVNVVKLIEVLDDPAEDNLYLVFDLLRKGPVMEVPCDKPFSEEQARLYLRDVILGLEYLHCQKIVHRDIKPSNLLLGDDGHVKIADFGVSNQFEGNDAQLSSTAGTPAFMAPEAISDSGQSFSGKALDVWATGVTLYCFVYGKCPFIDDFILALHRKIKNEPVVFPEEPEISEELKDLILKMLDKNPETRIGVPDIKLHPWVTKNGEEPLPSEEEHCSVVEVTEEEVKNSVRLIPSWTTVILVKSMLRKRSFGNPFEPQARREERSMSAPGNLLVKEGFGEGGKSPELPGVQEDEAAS

Regarding `O=C(N[C@@H](C1CC1)C(F)(F)F)c1cc(-c2cnn3cc(-c4ccc(F)cc4)cnc23)cs1`, the inhibition in assay [1] stood at 0%. Further, the fold change (FC) in assay [2] was determined as 0.41; in assay [3] it was 0.01. On to `CNC(=O)c1ccccc1Oc1nc(Nc2cc(OC)c(OC)c(OC)c2)ncc1Br`, for which the inhibition in assay [4] is 0%. In the case of `CC(C)[C@H](NC(=O)c1cc(-c2cnn3cc(-c4ccc(OCCN5CCCCC5)cc4)cnc23)cs1)C(F)(F)F`, in assay [5], the fold change (FC) was 0.85.

The inhibition is the share of the control response that was lost under treatment.

Source of the values: ChEMBL document CHEMBL5653631, “A Potent and Selective ULK1 Inhibitor Suppresses Autophagy and Sensitizes Cancer Cells to Nutrient Stress” (iScience, 2018).
